{
  "source": "patent US8338471B2",
  "about": "“(2,5-dioxoimidazolidin-i-yl)-n-hydroxy-acetamides as metalloproteinase inhibitors” (Medivir AB, priority 2005, dated 2012)",
  "assay_type_in_all_cases": "biochemical",
  "key": {"recombinant human MMP-12": {"biological_target": "T1, recombinant human MMP-12 (Homo sapiens, UniProt P39900)", "T1 construct": "purchased R&D Systems; host or cells: mouse myeloma cell line NS-40 (so in the source)", "T1 sequence (P39900 106-470)": "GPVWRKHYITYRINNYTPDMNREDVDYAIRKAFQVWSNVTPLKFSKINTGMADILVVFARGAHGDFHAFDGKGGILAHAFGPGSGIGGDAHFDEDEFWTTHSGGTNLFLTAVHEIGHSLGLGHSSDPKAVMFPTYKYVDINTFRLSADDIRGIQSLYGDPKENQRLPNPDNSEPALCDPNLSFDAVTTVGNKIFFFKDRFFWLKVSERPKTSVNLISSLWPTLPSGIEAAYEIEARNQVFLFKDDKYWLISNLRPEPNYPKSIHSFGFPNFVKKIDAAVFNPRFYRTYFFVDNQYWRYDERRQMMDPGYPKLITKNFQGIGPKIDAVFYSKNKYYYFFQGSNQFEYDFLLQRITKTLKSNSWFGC", "experiment": "MMP-12 enzyme assay (FRET substrate)", "method": "A typical MMP-12 enzyme assay employs recombinant human MMP-12 catalytic domain expressed and purified as described by Parkar A. A. et al, (2000), Protein Expression and Purification, 20:152. The purified enzyme can be used to monitor inhibitors of activity as follows: MMP-12 (50 ng/ml final concentration) is incubated for 60 minutes at room temperature with the synthetic substrate Mac-Pro-Cha-Gly-Nva-His-Ala-Dpa-NH2 in assay buffer (0.1M “Tris-HCl” (trade mark) buffer, pH 7.3 containing O.1M NaCl, 20 mM CaCl2, 0.020 mM ZnCl and 0.05% (w/v) “Brij 35” (trade mark) detergent) in the presence (5 concentrations) or absence of inhibitors. Activity is determined by measuring the fluorescence at λex 320 nm and λem 405 nm. Percent inhibition is calculated as follows: % Inhibition is equal to the (Fluorescenceplus inhibitor−Fluorescencebackground); divided by the (Fluorescenceminus inhibitor−Fluorescencebackground);\nA favoured assay employs full length recombinant human MMP-12, amino acid residues 1 to 470 (Shapiro et al 1993, J Biol Chem 268:23824-23829) expressed in mouse myeloma cell line NS-40. The purified rhMMP-12 typically has the N terminal sequence L17PLNSSTSLE and an SDS-PAGE apparent molecular mass of approx. 56 kDa. Such proteins are available from R&D Systems, USA as a lyophilised 0.2 um filtered solution of 25 mM MES, 0.15M NaCl, 10 mMCaCl2, 0.15% Brij 35, pH 5.5. Auto-activation of the rhMMP-12 can be achieved by dilution to 0.05 mg/ml into TCNB buffer (50 mMTris, 10 mM CaCl2, 0.15M NaCl, 0.05% Brij 35, pH 7) and incubation at 37 degrees for 30 hours. A preferred buffer for MMP work is 50 mM Tris.HCl, pH 7.5, 200 mM Ca acetate.\nSuitable FRET substrates include (7-methoxycoumarin-4-yl)acetyl-Pro-Leu-Gly-Leu-(3-(2,4-dinitrophenoyl)-L-2,3-diaminopropionyl)-Ala-Arg-NH2, commercially available from R&D Systems, USA. Typical specific activities are >500 picomol/min/ug, with rhMMP-12 measured with 10 uM of this substrate, 20 ng activated enzyme in 100 ul TCNB buffer at room temperature.\nAn alternative general MMP substrate is Dnp-PLGLWAD-R-NH2.\nCategory A indicates ≦50 nM inhibition, category B indicates 51-200 nM inhibition and category C indicates >200 nM: […]"}, "recombinant human TACE": {"biological_target": "T2, recombinant human TACE (Homo sapiens, UniProt P78536)", "T2 construct": "purchased R&D Systems", "T2 sequence (P78536 215-824)": "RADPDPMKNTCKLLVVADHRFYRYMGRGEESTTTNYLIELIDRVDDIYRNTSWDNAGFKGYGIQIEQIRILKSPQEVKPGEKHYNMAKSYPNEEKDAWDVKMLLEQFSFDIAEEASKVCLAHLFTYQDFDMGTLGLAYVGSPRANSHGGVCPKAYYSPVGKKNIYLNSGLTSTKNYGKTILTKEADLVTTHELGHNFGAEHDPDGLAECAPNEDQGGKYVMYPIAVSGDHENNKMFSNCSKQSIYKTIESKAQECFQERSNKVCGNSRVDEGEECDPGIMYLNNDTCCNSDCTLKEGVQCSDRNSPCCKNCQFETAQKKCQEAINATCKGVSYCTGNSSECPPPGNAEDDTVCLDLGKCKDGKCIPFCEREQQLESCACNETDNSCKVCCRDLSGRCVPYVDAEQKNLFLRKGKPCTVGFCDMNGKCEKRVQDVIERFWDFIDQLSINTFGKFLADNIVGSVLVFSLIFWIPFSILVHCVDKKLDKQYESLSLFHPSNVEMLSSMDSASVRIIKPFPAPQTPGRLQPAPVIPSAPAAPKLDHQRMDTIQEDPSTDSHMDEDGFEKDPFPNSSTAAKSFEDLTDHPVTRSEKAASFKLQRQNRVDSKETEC", "experiment": "TACE enzyme assay (FRET substrate), selectivity versus MMP-12", "conditions": "fold difference in Ki for TACE compared to MMP-12", "method": "The activity was measured by a continuous detection of increased fluorescence intensity during 12 min. The substrate consisted of a peptide with a fluorescent donor 7-methoxycoumarin (Mca) and a quenching acceptor 2,4-dinitrophenyl group (Dpa), typically Mca-P-L-A-Q-A-V-Dpa-R-S-S-S-R-NH2 (R&D Systems, ES003). The cleavage site by TACE is the peptide bond between Ala and Val. The compounds were tested at a range of concentrations while the enzyme and substrate concentrations were fixed. A typical TACE assay employs recombinant human TACE (supplied by R&D Systems) in an assay buffer (25 mM Tris-HCl, pH=9.0, 2.5 μM ZnCl2, 0.005% Brij 35). The enzyme concentration (TACE) used was 100 ng/ml, the substrate was prepared at a 100 μM stock solution in DMSO and a 96-well polypropylene plate was used for the reaction mixtures. To each well of the plate was added assay buffer 90.0 μl, enzyme (TACE) 0.09 μl and inhibitor 1 μl. The reactions were started by addition of substrate 10 μl/well, giving a substrate concentration of 10 μM and a total volume of 100 μl/well. The total concentration of DMSO was not above 1%. The assay was performed at ambient temperature. Product fluorescence ([…]) was monitored with a Thermo Labsystems Fluoroskan Ascent plate reader. The Ki was determined by Prism Software.\n(§1) The selectivity for MMP-12 over MMP-3 and TACE was evaluated for a representative selection of the compounds of the invention by comparing the Ki figures obtained when tested in the corresponding enzyme assays, such as those described above. The selectivity is presented as the fold difference in Ki for TACE and MMP-3 compared to MMP-12 and is calculated as the ratio Ki(TACE)/KiMMP-12 and Ki(MMP-3)/KiMMP-12 respectively."}, "recombinant human MMP-3": {"biological_target": "T3, recombinant human MMP-3 (Homo sapiens, UniProt P08254)", "T3 construct": "purchased R&D Systems", "T3 sequence (P08254 100-477)": "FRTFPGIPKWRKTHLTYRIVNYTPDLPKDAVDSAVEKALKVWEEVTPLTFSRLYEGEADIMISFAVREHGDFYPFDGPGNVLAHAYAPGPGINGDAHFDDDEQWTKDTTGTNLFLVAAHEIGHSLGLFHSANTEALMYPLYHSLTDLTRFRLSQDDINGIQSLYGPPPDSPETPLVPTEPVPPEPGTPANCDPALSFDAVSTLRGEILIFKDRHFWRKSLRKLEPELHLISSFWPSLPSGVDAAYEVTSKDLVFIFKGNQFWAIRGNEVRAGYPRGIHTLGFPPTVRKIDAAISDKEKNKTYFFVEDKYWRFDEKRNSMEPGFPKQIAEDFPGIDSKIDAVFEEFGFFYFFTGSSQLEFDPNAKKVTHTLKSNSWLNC", "experiment": "MMP-3 enzyme assay (FRET substrate), selectivity versus MMP-12", "conditions": "fold difference in Ki for MMP-3 compared to MMP-12", "method": "The activity was measured by a continuous detection of increased fluorescence intensity during 12 min. The substrate consisted of a peptide with a fluorescent donor 7-methoxycoumarin (Mca) and a quenching acceptor 2,4-dinitrophenyl group (Dpa), typically Mca-Arg-Pro-Lys-Pro-Val-Glu-Nval-Trp-Arg-Lys(Dnp)-NH2 (R&D Systems, ES002). The cleavage site by MMP-3 is the peptide bond between Glu and Nval. The compounds were tested at a range of concentrations, the enzyme concentration (MMP-3) was fixed at 400 ng/ml and the substrate concentrations was 10 μM. The MMP-3 assay used employs recombinant human MMP-3 (supplied by R&D Systems) in an assay buffer of 50 mM Tris-HCl, 200 mM calcium acetate at pH=7.5. The MMP-3 enzyme was preactivated by dilution to 0.119 mg/ml into 1 mM APMA (p-aminophenylmercuric acetate) followed by incubation at 37° C. for 24 hours. The substrate was prepared at a 100 μM stock solution in DMSO and a 96-well polypropylene plate was used for the reaction mixtures. To each well of the plate was added assay buffer 90.0 μl, enzyme (MMP-3) 0.3 μl and inhibitor 1 μl. The reactions were started by addition of substrate, 10 μl/well, to a total volume of 100 μl/well. The total concentration of DMSO was not above 1%. The assay was performed at ambient temperature. Product fluorescence ([…]) was monitored with a Thermo Labsystems Fluoroskan Ascent plate reader. The Ki was determined by Prism Software.\nas §1"}},
  "data": [
    {"smiles": "CC(C)[C@H](C(=O)NO)N1C(=O)N[C@@H](CCc2ccc(F)cc2)C1=O", "note": "[Example 38, 2-{4-[2-(4-Fluoro-phenyl)-ethyl]-2,5-dioxoimidazolidin-1-yl}-N-hydroxy-3-methylbutyramide]", "values": [
      {"measurement": "Ki", "setting": "recombinant human MMP-12", "result": "≤ 50", "unit": "nM"},
      {"measurement": "Ki(TACE)/Ki(MMP-12)", "setting": "recombinant human TACE", "result": 390},
      {"measurement": "Ki(MMP-3)/Ki(MMP-12)", "setting": "recombinant human MMP-3", "result": 150}
    ]}
  ]
}
